In brackets after ≈: the same amount, converted by molar mass.
Key:
[1] = tested on: Pseudomonas aeruginosa (NCTC 7244); assay: Minimum bactericidal concentration (Referential Example 2, Table 2); assay type: cell-based; conditions: NCTC7244, 18 h, subculture on HIA medium
Experimental: (§1) The compounds obtained in Synthesis Examples 1 to 4 were tested in the following manner.
(§2) A suspension of Pseudomonas aeruginosa (NCTC 7244) cultivated at 37° C. for 18 hours in a heart infusion broth medium (HIB medium) in a final amount of 10^5, 10^6 and 10^7 cells/ml in an HIB medium containing each of the test compounds which was obtained in the same way as in Referential Example 1 except that the maximum concentration of the test compound was 200 μg/ml. The bacterial strain was cultivated at 37° C. for 18 hours, and the turbidity of the culture broth was evaluated with the naked eye. The minimum concentration of the test compound at which no turbidity was noted was defined as MIC.
The growth of the bacterial strain was evaluated.

[2] = Acute toxicity (LD50) in mice, intravenous (Experimental Example 2); conditions: mouse, in vivo; ICR male mice, intravenous (tail), two weeks observation; estimated; read-out: 50% lethal dose (LD50)
Experimental: Each of the compounds was administered intravenously to the tail of each mouse in a customary manner in a dose of 500 mg/kg and 1000 mg/kg, and over two weeks from then, the states of the mice were observed. It was consequently estimated that the LD50 values of each of these compounds was at least 1000 mg/kg.

[3] = tested on: Pseudomonas aeruginosa (NCTC 7244); assay: MIC in HIB medium by turbidity (Referential Example 2, Table 2); assay type: cell-based; conditions: NCTC7244, 18 h, 37° C.
Experimental: as §1, §2

[4] = tested on: Staphylococcus aureus (Y-8); assay: MIC, agar plate dilution (Referential Example 1, Table 1); assay type: cell-based; conditions: HIA medium plate, 37° C., 18 hours, read-out: Minimum growth inhibitory concentration (MIC)
Experimental: (§3) The antibacterial activities of the cephalosporins of this invention were measured using the sodium salts of the compounds obtained in Synthesis Examples 1 and 2. The procedure and the results are shown in Referential Example 1.
(§4) Carbenicillin sodium salt (CB-PC) and cephazoline sodum salt (CEZ) were used as controls.
(§5) The antibacterial activities of the test compounds against various Gram-positive and Gram-negative bacteria were determined in a customary manner by the minimum growth inhibitory concentration method (MIC method).
(§6) The experimental procedure was as follows:
(§7) A commercially available heart infusion agar medium (to be abbreviated HIA medium) was used as an assay medium, and a commercially available trypto-soy bouillon medium (to be abbreviated TSB) was used as a medium for the growth of test bacterial strains.
(§8) The test compound was diluted with the melted HIA medium to 100 μg/ml as a maximum concentration, and then serially diluted double. The dilutions were poured into sterilized Petri dishes respectively and allowed to cool and solidify to prepare plates containing the test compound.
(§9) The test bacterial strain was cultivated at 37° C. for 18 to 24 hours in the TSB medium. The culture broth was diluted to 50 to 500 times with a freshly prepared TSB culture medium, and one platinum loopful of the dilution was inoculated in each of the plates containing the test compound.

Escherichia coli (NIHJ) = assay: as above; assay type: cell-based; conditions: 18 h, read-out: Minimum growth inhibitory concentration (MIC)
Experimental: as §3, §4, §5, §6, §7, §8, §9

[5] = tested on: Pseudomonas aeruginosa (F1629); assay: as above; assay type: cell-based; conditions: HIA medium plate, 37° C., 18 hours, read-out: Minimum growth inhibitory concentration (MIC)
Experimental: as §3, §4, §5, §6, §7, §8, §9

[6] = tested on: Serratia marcescens (S-33); assay: as above; assay type: cell-based; conditions: HIA medium plate, 37° C., 18 hours, read-out: Minimum growth inhibitory concentration (MIC)
Experimental: as §3, §4, §5, §6, §7, §8, §9

[7] = tested on: Streptococcus faecalis (Hoshi); assay: as above; assay type: cell-based; conditions: Enterococcus faecalis; HIA medium plate, 37° C., 18 hours; read-out: Minimum growth inhibitory concentration (MIC)
Experimental: as §3, §4, §5, §6, §7, §8, §9

[8] = tested on: Klebsiella pneumoniae (Horino); assay: as above; assay type: cell-based; conditions: HIA medium plate, 37° C., 18 hours, read-out: Minimum growth inhibitory concentration (MIC)
Experimental: as §3, §4, §5, §6, §7, §8, §9

[9] = tested on: Enterobacter aerogenes (IFO 3320); assay: as above; assay type: cell-based; conditions: Klebsiella aerogenes, IFO3320, 18 h, read-out: Minimum growth inhibitory concentration (MIC)
Experimental: as §3, §4, §5, §6, §7, §8, §9

Proteus vulgaris (OX-19) = assay: as above; assay type: cell-based; conditions: 18 h, read-out: Minimum growth inhibitory concentration (MIC)
Experimental: as §3, §4, §5, §6, §7, §8, §9

Escherichia coli (K-12) = assay: as above; assay type: cell-based; conditions: 18 h, read-out: Minimum growth inhibitory concentration (MIC)
Experimental: as §3, §4, §5, §6, §7, §8, §9

[10] = tested on: Staphylococcus aureus (FDA 209P); assay: as above; assay type: cell-based; conditions: FDA209P, 18 h, read-out: Minimum growth inhibitory concentration (MIC)
Experimental: as §3, §4, §5, §6, §7, §8, §9

Proteus rettgeri (T-2) = assay: as above; assay type: cell-based; conditions: Providencia rettgeri; HIA medium plate, 37° C., 18 hours; read-out: Minimum growth inhibitory concentration (MIC)
Experimental: as §3, §4, §5, §6, §7, §8, §9

[11] = tested on: Pseudomonas maltophilia (F-6257); assay: as above; assay type: cell-based; conditions: Stenotrophomonas maltophilia; HIA medium plate, 37° C., 18 hours; read-out: Minimum growth inhibitory concentration (MIC)
Experimental: as §3, §4, §5, §6, §7, §8, §9

[12] = tested on: Salmonella enteritidis (KB-21); assay: as above; assay type: cell-based; conditions: Salmonella enterica, HIA medium plate, 37° C., 18 hours, read-out: Minimum growth inhibitory concentration (MIC)
Experimental: as §3, §4, §5, §6, §7, §8, §9

[13] = tested on: Pseudomonas aeruginosa (ATCC 10145); assay: as above; assay type: cell-based; conditions: ATCC10145, HIA medium plate, 37° C., 18 hours, read-out: Minimum growth inhibitory concentration (MIC)
Experimental: as §3, §4, §5, §6, §7, §8, §9

[14] = tested on: Klebsiella pneumonia (F-5089); assay: as above; assay type: cell-based; conditions: Klebsiella pneumoniae; HIA medium plate, 37° C., 18 hours; read-out: Minimum growth inhibitory concentration (MIC)
Experimental: as §3, §4, §5, §6, §7, §8, §9

Shigella flexneri (K-A) = assay: as above; assay type: cell-based; conditions: HIA medium plate, 37° C., 18 hours, read-out: Minimum growth inhibitory concentration (MIC)
Experimental: as §3, §4, §5, §6, §7, §8, §9

[15] = Blood level in rats after intramuscular administration (Experimental Example 1, Table 3); assay type: in vivo; conditions: rat, im, 20 mg/kg i.m., serum, read-out: Blood level after administration (average value ± standard deviation); for concentration at 0.25 h: 15 minutes; for concentration at 0.5 h: 30 minutes; for concentration at 1 h: 60 minutes; for concentration at 2 h: 120 minutes
Experimental: The compounds of this invention prepared in Synthesis Examples 1 and 2 were each administered intramuscularly to rats, and the concentrations of the compounds in the blood were determined.
Each of the test compounds was intramuscularly injected into the femoral part of rats in a customary manner in a dose of 20 mg/kg for each rat. The blood was drawn by incising the cervical artery and vein at the end of 15 minutes, 30 minutes, 60 minutes, 120 minutes, and 240 minutes after the injection. The separated sera were used for the measurement of the blood level of the test compounds. The concentrations of the test compounds in the sera were determined by a thin-layer cup method using Micrococcus luteus ATCC 9341 as an assay microorganism.

Row | Compound | MBC ([1]; 10^5 cells/ml inoculated) [µg/mL] | MBC ([1]; 10^6 cells/ml inoculated) [µg/mL] | MBC ([1]; 10^7 cells/ml inoculated) [µg/mL] | LD50 at 336 h [2] [mg/kg] | MIC ([3]; 10^5 cells/ml inoculated) [µg/mL] | MIC ([3]; 10^6 cells/ml inoculated) [µg/mL] | MIC ([3]; 10^7 cells/ml inoculated) [µg/mL] | MIC [4] [µg/mL] | MIC (Escherichia coli (NIHJ)) [µg/mL] | MIC [5] [µg/mL] | MIC [6] [µg/mL] | MIC [7] [µg/mL] | MIC [8] [µg/mL] | MIC [9] [µg/mL] | MIC (Proteus vulgaris (OX-19)) [µg/mL] | MIC (Escherichia coli (K-12)) [µg/mL] | MIC [10] [µg/mL] | MIC (Proteus rettgeri (T-2)) [µg/mL] | MIC [11] [µg/mL] | MIC [12] [µg/mL] | other results
1 | CC(=O)OCC1=C(C(=O)O)N2C(=O)C(NC(=O)[C@H](NC(=O)c3cnc4c(c3O)C(=O)CCC4)c3ccc(O)cc3)C2SC1 (single isomer, unassigned) [Synthesis Example 1, 7-[D-(-)-α-(4-hydroxy-5-oxo-5,6,7,8-tetrahydroquinoline-3-carboxamide)-α-(4-hydroxyphenyl)acetamido]-3-acetoxymethyl-Δ^3-cephem-4-carboxylic acid] | 12.5 (≈ 20.5 µM) | 25 (≈ 40.9 µM) | > 200 | ≥ 1000 | 12.5 (≈ 20.5 µM) | 12.5 (≈ 20.5 µM) | 25 (≈ 40.9 µM) | 3.13 (≈ 5.13 µM) | 1.56 (≈ 2.55 µM) | 12.5 (≈ 20.5 µM) | 25 (≈ 40.9 µM) | 25 (≈ 40.9 µM) | 3.13 (≈ 5.13 µM) | 0.39 (≈ 0.639 µM) | 1.56 (≈ 2.55 µM) | 1.56 (≈ 2.55 µM) | 1.56 (≈ 2.55 µM) | 3.13 (≈ 5.13 µM) | 0.25 (≈ 0.409 µM) | 0.78 (≈ 1.28 µM) | MIC [13]: 12.5 µg/mL (≈ 20.5 µM); MIC [14]: 3.13 µg/mL (≈ 5.13 µM); MIC (Shigella flexneri (K-A)): 0.39 µg/mL (≈ 0.639 µM); concentration at 0.25 h [15]: 14000 ± 2200 ng/mL; concentration at 0.5 h [15]: 9800 ± 3100 ng/mL; concentration at 1 h [15]: 6800 ± 2200 ng/mL; concentration at 2 h [15]: 2200 ± 1000 ng/mL
2 | Cc1nnc(SCC2=C(C(=O)O)N3C(=O)C(NC(=O)[C@H](NC(=O)c4cnc5c(c4O)C(=O)CCC5)c4ccc(O)cc4)C3SC2)s1 (single isomer, unassigned) [Synthesis Example 2] | 12.5 (≈ 18.3 µM) | 12.5 (≈ 18.3 µM) | > 200 | ≥ 1000 | 12.5 (≈ 18.3 µM) | 12.5 (≈ 18.3 µM) | > 200 | 3.13 (≈ 4.58 µM) | 0.78 (≈ 1.14 µM) | 6.25 (≈ 9.15 µM) | 12.5 (≈ 18.3 µM) | 12.5 (≈ 18.3 µM) | 1.56 (≈ 2.28 µM) | 0.39 (≈ 0.571 µM) | 0.78 (≈ 1.14 µM) | 0.39 (≈ 0.571 µM) | 0.78 (≈ 1.14 µM) | 1.56 (≈ 2.28 µM) | 3.13 (≈ 4.58 µM) | 0.2 (≈ 0.293 µM) | MIC [13]: 12.5 µg/mL (≈ 18.3 µM); MIC [14]: 1.56 µg/mL (≈ 2.28 µM); MIC (Shigella flexneri (K-A)): 0.2 µg/mL (≈ 0.293 µM); concentration at 0.25 h [15]: 22800 ± 2600 ng/mL; concentration at 0.5 h [15]: 16100 ± 3000 ng/mL; concentration at 1 h [15]: 7600 ± 1800 ng/mL; concentration at 2 h [15]: 2500 ± 1200 ng/mL

From US4296112A, “Cephalosporins” (Mitsui Toatsu Chemicals, Inc., priority 1979, dated 1981)
